This is an account of results in patent US20110300132A1, “4-AMINOQUINAZOLINE PRODRUGS” (Concert Pharmaceuticals, Inc., priority 2008, published 2011).

Values after ≈ are worked out from the molar mass of the structure shown. Like-named read-outs stand apart in the source and are kept apart here.

The nature of data set [1]: Evaluation of aqueous solubility in different aqueous buffers (HPLC quantification). The class given is physicochemical. The settings on record: thermodynamic from solid, equilibrated at 25° C. for 24 hours. The procedure:
Aqueous solubility of the compounds of this invention was determined by suspending sufficient compound in different aqueous buffers to give a maximum final concentration of ≧10 mg/mL of the compound. The resulting suspension was equilibrated at 25° C. for 24 hours then the pH is measured. The suspension was then filtered through a glass fibre C filter into a 96 well plate. The filtrate was diluted by a factor of 10. Quantification was by HPLC with reference to a standard solution in DMSO. Different volumes of the standard, diluted and undiluted sample solutions were injected. The solubility was calculated using the peak areas determined by integration of the peak found at the same retention time as the principal peak in the standard injection.

For data set [2] the following is noted: as reported on FDA approved label, cited from earlier work.
The mark [3] stands for this setting: Buffer: FaSSIF (fasted state simulated intestinal fluid), final pH 6.61 (103), 6.58 (101).

As to `CS(=O)(=O)CCN(Cc1ccc(-c2ccc3ncnc(Nc4ccc(OCc5cccc(F)c5)c(Cl)c4)c3c2)o1)C(=O)OCOP(=O)([O-])[O-].[Na+].[Na+]` [Compound 103, Sodium (((5-(4-(3-Chloro-4-(3-fluorobenzyloxy)phenylamino)quinazolin-6-yl)furan-2-yl)methyl)(2-(methylsulfonyl)ethyl)carbamoyloxy)methyl phosphate], the solubility at 24 h in data set [1] (aqueous buffer, Buffer: Phosphate pH 6.3, final pH 6.45) was 170 µg/mL; in data set [1] (aqueous buffer, Buffer: Phosphate pH 6.8, final pH 7.03) it was 520 µg/mL; in data set [1] (aqueous buffer, Buffer: Phosphate pH 7.3, final pH 7.41) it was 4600 µg/mL; in data set [1] (setting [3]) it was 9100 µg/mL.

Compound `CS(=O)(=O)CCN(Cc1ccc(-c2ccc3ncnc(Nc4ccc(OCc5cccc(F)c5)c(Cl)c4)c3c2)o1)C(=O)OCOP(=O)(O)O` [Compound 101, Phosphonooxymethyl (5-(4-(3-chloro-4-(3-fluorobenzyloxy)phenylamino)quinazolin-6-yl)furan-2-yl)methyl(2-(methylsulfonyl)ethyl)carbamate] yielded a solubility at 24 h in data set [1] (setting [3]) of 25 µg/mL (≈ 34 µM).

On to `CS(=O)(=O)CCNCc1ccc(-c2ccc3ncnc(Nc4ccc(OCc5cccc(F)c5)c(Cl)c4)c3c2)o1.Cc1ccc(S(=O)(=O)O)cc1.Cc1ccc(S(=O)(=O)O)cc1.O` [Lapatinib ditosylate, N-[3-Chloro-4-(3-fluorobenzyloxy)phenyl]-6-[5-[2-(methylsulfonyl)ethylaminomethyl]furan-2-yl]quinazolin-4-amine bis(4-methylbenzenesulfonate) hydrate], for which the “Solubility” value in data set [2] (0.1N HCl) was 1 µg/mL; in data set [2] (Water) it was 7 µg/mL.
